{
  "source": "patent US6933310B1",
  "about": "“Therapeutic agent for amyotrophic lateral sclerosis (ALS)” (Mitsubishi Pharma Corporation, priority 2000, dated 2005)",
  "key": {"Wobbler mice [1]": {"system": "Wobbler mice", "experiment": "Forelimb deformity grading in Wobbler mice", "format": "in vivo, mouse", "details": "10 mg/kg orally, 4 weeks, vs control group (FIG. 1)", "from_the_text": "(§1) Wobbler mice (Ikeda K. et al., Ann. Neurol. vol. 34, p304, 1993; Mitsumoto H. et al., Ann. Neurol. vol. 36, pp142 to 148, 1994; Mitsumoto H. et al., Science, vol. 265, pp1107 to 1110, 1994) were used.\n(§2) At 3 to 4 weeks old, with the development of the symptom of body tremors, Wobbler mice were diagnosed with the onset of the disease. Immediately after being diagnosed to have the beginnings of the disease, the mice were orally administered with the drug of the present invention (3-methyl-1-phenyl-2-pirazoline-5-on; also referred to as MCI-186 in the drawings) (10 mg/kg), and the mice of a control group were administered with vehicles, by a blind test continually for 4 weeks. The administration of the drug was completed at 7 to 8 weeks old after birth, and the test was conducted with n=10 for each test group.\nThe degree of forelimb deformity was classified into four grades: 1 (paw atrophy), 2 (curled digits), 3 (curled wrists), and 4 (forelimb flexion to chest), and then evaluated. The progress from 1 to 4 means that the symptom became worse.\nThe scale of the degree of forelimb deformity was analyzed by the non-parametric Wilcoxon signed rank-sum test. Muscle strength, weight of biceps muscle, mean diameter of muscle fibers and number of motor neurons were statistically analyzed by unpaired Student's t-test. In all tests, the significance level of 5% was set for both sides."}, "mouse": {"system": "mouse", "details": "intraabdominal administration; cited from earlier work"}, "[2]": {"details": "National Cancer Institute Report, 89, 1978; cited from earlier work"}, "Wobbler mice [3]": {"system": "Wobbler mice", "experiment": "Forelimb grip strength in Wobbler mice", "format": "in vivo, mouse", "details": "10 mg/kg orally, 4 weeks, vs control group (FIG. 2)", "from_the_text": "as §1\nas §2, with “The administration of the drug was completed at 7 to 8 weeks old after birth, and the test was conducted with n=10 for each test group.” left out\nThe grip strength of the forelimb was measured (Ikeda et al., Neuromusc. Disord., 5, (1995), 383–390; K. Ikeda et al., J. Neurol. Sci., 160, (1998) 9–15; K. Ikeda et al., Neurosci. Lett., 250 (1998) 9–12; K. Ikeda et al., Muscle Nerve, 18 (1995) 1344–1347; K. Ikeda et al., Neurol. Res., 17 (1995) 445–448; K. Ikeda et al., Ann. Neurol., 37 (1995) 505–511; K. Ikeda et al., Brain Res., 726 (1996) 91–97; H. Mitsumoto et al., Ann. Neurol., 36 (1994) 142–148; and H. Mitsumoto et al., Science, 265 (1994) 1107–1110). […]\nThe scale of the degree of forelimb deformity was analyzed by the non-parametric Wilcoxon signed rank-sum test. […]"}, "Wobbler mice [4]": {"system": "Wobbler mice", "experiment": "Weight and morphology of right brachial biceps muscle in Wobbler mice", "format": "in vivo, mouse", "details": "10 mg/kg orally, 4 weeks", "from_the_text": "as §1, §2\nAfter the end of drug administration, Wobbler mice (n=10 per group) were ether anesthetized, and then the right brachial biceps muscles were excised under dissecting microscope. The excised biceps muscles were correctly measured, and then frozen. […]\n(§3) The scale of the degree of forelimb deformity was analyzed by the non-parametric Wilcoxon signed rank-sum test. Muscle strength, weight of biceps muscle, mean diameter of muscle fibers and number of motor neurons were statistically analyzed by unpaired Student's t-test. […]"}, "Wobbler mice [5]": {"system": "Wobbler mice", "experiment": "Number of spinal motor neurons in Wobbler mice", "format": "in vivo, mouse", "details": "10 mg/kg orally, 4 weeks, cervical spinal cord C5-6, vs control group (FIG. 4)", "from_the_text": "as §1, §2\nWobbler mice (n=10 per group) that had been used for morphological study on the right brachial biceps muscles were perfused via an intracardiac catheter with phosphate buffered saline, and then 4% paraformaldehyde/1% glutaraldehyde/0.1 M sodium phosphate buffer (pH 7.4). […]\nas §3"}, "ALS": {"system": "ALS", "details": "some reported test results; cited from earlier work"}, "ALS patients": {"system": "ALS patients", "details": "administered intraspinally to ALS patients; cited from earlier work"}},
  "data": [
    {"compound": "CC1=NN(c2ccccc2)C(=O)C1", "note": "[3-methyl-1-phenyl-2-pirazoline-5-on]", "values": [
      {"measurement": "degree of forelimb deformity (Grades 1 to 4)", "setting": "Wobbler mice [1]", "value": "the progress of muscle deformity was delayed"},
      {"measurement": "LD50", "setting": "mouse", "value": 2012, "unit": "mg/kg"},
      {"measurement": "carcinogenicity", "setting": "[2]", "value": "noncarcinogenicity"},
      {"measurement": "muscle strength of the forelimb (grip strength)", "setting": "Wobbler mice [3]", "value": "the decrease in muscle strength was delayed"},
      {"measurement": "mean diameter of muscle fibers (mean±SEM)", "setting": "Wobbler mice [4]; right brachial biceps, P<0.01 vs control 16.8±0.6 μm", "value": "20.3±0.8", "unit": "μm"},
      {"measurement": "weight of the right brachial biceps muscle", "setting": "Wobbler mice [4]; vs control group (FIG. 3)", "value": "significantly increased"},
      {"measurement": "number of spinal motor neurons", "setting": "Wobbler mice [5]", "value": "increased"}
    ]},
    {"compound": "Nc1nc2ccc(OC(F)(F)F)cc2s1", "note": "[riluzole]", "values": [
      {"measurement": "effectiveness against ALS", "setting": "ALS", "value": "effectiveness against ALS could not be confirmed"}
    ]},
    {"compound": "human recombinant Cu/Zn SOD: human recombinant Cu/Zn superoxide dismutase administered intraspinally to ALS patients", "values": [
      {"measurement": "therapeutic effect in ALS patients", "setting": "ALS patients", "value": "effective therapeutic effects were not obtained"}
    ]}
  ]
}
